Assay results taken from patent US6107549A, “Genetically engineered plant resistance to thiazopyr and other pyridine herbicides” (Monsanto Company, priority 1999, dated 2000).

Legend:
RLE3 = molecular target: T1, RLE3 (Oryctolagus cuniculus, UniProt P12337, A196R/H30K); test: Esterase activity of RLE3 cDNA expressed in insect cells; type: biochemical, rabbit; settings: culture media from SF9 cells containing RLE3 cDNA
T1 construct: 19-residue synthetic ER signal peptide (design based on the homologous rat esterase, Robbi et al. 1990; Ala added after Met) (N); made in house; host or cells: Spodoptera frugiperda SF9 cells, baculovirus
T1 sequence (P12337 with tags, fused parts or gaps H30K/A196R): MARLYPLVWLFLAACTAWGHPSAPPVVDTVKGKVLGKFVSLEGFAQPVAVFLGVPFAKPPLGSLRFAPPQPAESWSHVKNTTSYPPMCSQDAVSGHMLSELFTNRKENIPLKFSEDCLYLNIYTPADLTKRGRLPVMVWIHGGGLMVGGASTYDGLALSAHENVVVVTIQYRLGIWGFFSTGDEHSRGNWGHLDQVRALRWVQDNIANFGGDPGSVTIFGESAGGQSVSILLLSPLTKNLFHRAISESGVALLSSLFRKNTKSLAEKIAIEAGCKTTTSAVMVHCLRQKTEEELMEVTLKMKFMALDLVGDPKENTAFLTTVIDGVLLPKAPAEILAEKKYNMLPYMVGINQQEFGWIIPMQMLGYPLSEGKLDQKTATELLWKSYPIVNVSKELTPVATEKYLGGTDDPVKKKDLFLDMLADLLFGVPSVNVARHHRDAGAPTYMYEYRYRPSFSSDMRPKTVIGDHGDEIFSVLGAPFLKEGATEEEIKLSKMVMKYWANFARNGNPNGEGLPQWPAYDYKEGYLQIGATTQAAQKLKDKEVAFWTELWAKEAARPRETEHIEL
Protocol: (§1) Esterase activity assays. Esterase activity was measured in vitro by conversion of either [^14 C]thiazopyr or [^14 C]MON 14300 to their corresponding monoacid. Pyridine-esterase activity was assayed during protein purification and from tissue extracts of transgenic plants. The homogenizing buffer for plant tissues consisted of 100 mM Tris pH 8.0, 1 mM EDTA, 1 mM DTT, and 10% glycerol in water. Plant tissues (1 g/ml buffer) including leaves, seeds, flowers, seedlings, etc. were homogenized in conical centrifuge tubes using a spinning pestle at 4° C. Following centrifugation (12,000× g), the supernatant (250 μl) was assayed immediately for esterase activity by incubation with [^14 C]thiazopyr or [^14 C]MON 14300 (4 μg) in 0.1 M Tris pH 8.0 buffer (50 μl) at 37° C. The reaction was sampled (100 μL) at various times (0.5 to 100 hr) to generate a kinetic profile of monoacid formation. The reaction was stopped by addition of 1% trifluoroacetic acid in acetonitrile (v/v, 150 μl). Following centrifugation (12,000× g for 3 min), the supernatant was analyzed by HPLC/RAD (radioactivity detection) to resolve the monoacid from the parent herbicide and other metabolites. Control reactions in the absence of the esterase recovered un-reacted thiazopyr or MON 14300 for the duration of experiments. Esterase activity was also assayed during protein purification following a similar procedure except a single time-point (1-2 hrs) of incubation was selected within the linear range of reaction. In vitro assays also employed three commonly used calorimetric (p-nitrophenyl butyrate) or fluorescent (4-methyl umbelliferyl butyrate and 5-bromo-4-chloro-3-indolylacetate) substrates. These substrates are useful in rapidly and qualitatively detecting general esterase activity.
Expression of RLE1 and RLE3 cDNAs in insect cells. Mature rabbit liver esterases are glycoproteins which reside in the lumen of the endoplasmic reticulum (ER) (Korza et al., 1988). […]

porcine liver esterase = test: Pyridine-esterase activity assay with porcine liver esterase; type: biochemical; settings: for esterase activity against substrate: commercially available preparations of porcine liver esterase
Protocol: as §1
Purification of pyridine-esterases from porcine and rabbit liver. Porcine and rabbit liver esterases, obtained commercially as (NH4)2 SO4 suspensions, were desalted using a disposable SEPHADEX™ G25 size exclusion column (Pharmacia Biotech). Proteins (1 to 10 mg) were initially separated on a strong anion exchange column (MONO Q™, Pharmacia Biotech) at 4° C. The column was linearly programmed in 30 minutes from 0 to 0.4 M KCl in 10 mM Tris buffer, pH 7.4 at a flow rate of 1 m/min. Subsequently, the column was programmed from 0.4 to 1.0 M KCl in 10 min. Effluent was monitored by UV (280 nm) and fractions were collected at 1 ml intervals. Effluent fractions were assayed for protein by Coomassie dye (Bio Rad Laboratory) and for pyridine-esterase activity. Protein purity was determined by SDS-PAGE on 10 to 15% gradient gels (Pharmacia Biotech) with visualization of proteins by silver staining.
Following anion exchange chromatography, fractions with the highest purity and activity were pooled. After desalting, the pooled fractions were further separated by isoelectric focusing (IEF) chromatography on a MONO P™ column (Pharmacia Biotech) at 4° C. IEF chromotography was conducted at different pH ranges (3-9, 4-7, 5.5-6.5 or 4.5-5.5) using appropriate combinations of POLYBUFFERS™ (Pharmacia Biotech) and a flow rate of […]. Effluent fractions from IEF chromatography were analyzed for protein and pyridine-esterase activity. The protein purity of the fractions was determined by SDS-PAGE and IEF-PAGE.

[1] = purified porcine esterase against thiazopyr, double reciprocal plot

Structure (SMILES): COC(=O)c1c(C(F)F)nc(C(F)(F)F)c(C(=O)n2cccn2)c1CC(C)C [MON 14300]
- esterase activity against substrate (RLE3): demonstrated esterase activity
- rate of hydrolysis compared with thiazopyr (porcine liver esterase; commercial porcine liver esterase): hydrolyzed faster than thiazopyr
- esterase activity against substrate (porcine liver esterase): demonstrated activity

Structure (SMILES): COC(=O)c1c(C(F)F)nc(C(F)(F)F)c(C2=NCCS2)c1CC(C)C [thiazopyr]
- esterase activity against substrate (RLE3): demonstrated esterase activity
- esterase activity against substrate (porcine liver esterase): demonstrated activity
- Km (porcine liver esterase; [1]): 320 µM
- Vmax (porcine liver esterase; [1]): 10.8 nmol/min/mg
